Data set [1] can be described thus: Solubility in water / aqueous solubility of HPPs and parent drugs. Particulars: for solubility: water; for Solubility in water: product as prepared in Example 1.
Data set [2] can be described thus: Plasma levels after transdermal administration to hairless mice. Type of data set: in vivo. Particulars: for t, time to peak plasma level after parent compound: parent compound administered (time when taken orally); for Peak plasma concentration after parent compound: parent compound administered, hairless mice; for Peak plasma concentration of parent compound after prodrug compound / t, time to peak plasma level of parent compound after prodrug compound: mouse, in vivo. The protocol:
Tested compounds (20% solution or suspension in 1 mL isopropanol) are administered transdermally to the skin of intact hairless mice. The plasma levels of the parent compounds are determined by HPLC.

The next data set concerns human skin tissue. The settings on record: pH 7.4; for In vitro penetration rate (apparent flux), parent compounds: human, 20 %.
A further data set deals with rats. Kind of data set: Antipyretic activity, E. coli suspension as pyrogen. Particulars: in °C (unit assumed). Type of data set: in vivo. On the procedure:
Rats are administered with sterilized E. coli suspension as a pyrogen. Each group of rats are administered with a prodrug compounds or parent compounds at a dosage specified below. The prodrug compounds are administered either orally or transdermally. The parent compounds are administered orally.

Another data set has as its system mice. Description: Analgesic activity, acetic acid writhing. Type of data set: in vivo. The protocol: The prodrug compounds are administered either transdermally or orally. The parent compounds are administered orally. The number of writhing that occurred when mice are administered the acetic acid solution are counted, and the rate of inhibition based on the control group which was not pretreated with any test compounds is calculated. […] The A group is the control group.
Background: Writhing tests count abdominal constrictions after an irritant is injected.

Setting [3] is: 100 mg/kg transdermally, 30 min before acetic acid.
[4] abbreviates: 50 mg/kg transdermally, 60 minutes before acetic acid.

The source of these data is patent publication US20210353579A1, “HIGH PENETRATION COMPOSITIONS AND USES THEREOF” (Techfields Pharma Co., Ltd., priority 2006, published 2021).

Values after ≈ are worked out from the molar mass of the structure shown.

As for `O=C(O)COc1nn(Cc2ccccc2)c2ccccc12` [Bendazac, bendazac, reference compound], the solubility (in general, the dissolved amount per volume that the medium holds) in data set [1] was found to be 0.1 mg/mL (≈ 0.354 mM). In data set [2], the “t, time to peak plasma level after parent compound” value (“t, time … after parent compound” for short) lay in the range of 1 to 2 h and the “Peak plasma concentration after parent compound” value was 0.1 mg/L.

Turning to `CC(C)Cc1ccc(CC(=O)O)cc1` [Ibufenac], in data set [1], the solubility was determined as 0.1 mg/mL (≈ 0.52 mM).

In the case of `CC(=O)O.CN(C)CCSC(=O)Cc1ccccc1Nc1c(Cl)cccc1Cl` [S-dimethylaminoethyl 2[(2,6-dichlorophenyl)amino] benzene acetate.AcOH], in data set [1], the Solubility in water is 410 mg/mL.

Consider `CC(=O)O.CCN(CC)CCNC(=O)CCc1nc(-c2ccccc2)c(-c2ccccc2)o1` [N-diethylaminoethyl 4,5-Diphenyl-2-oxazole propionamide.AcOH], for which the Solubility in water in data set [1] was 400 mg/mL.

As for `O=C(O)CCC(=O)c1ccc(-c2ccccc2)cc1` [Fenbufen, fenbufen, reference compound], the “In vitro penetration rate (apparent flux), parent compounds” value with human skin tissue amounted to 40 μg/cm^2/h. For the same molecule, in data set [2], the “t, time … after parent compound” value lay in the range of 2 to 4 h and the “Peak plasma concentration after parent compound” value came out at 10 mg/L.

As to `CC(=O)O.CCN(CC)CCOC(=O)CCc1nc(-c2ccccc2)c(-c2ccccc2)o1` [diethylaminoethyl 4,5-Diphenyl-2-oxazole propionate.AcOH], the “In vitro penetration rate (apparent flux), prodrug compounds” value in the data set with human skin tissue is listed as 4000 μg/cm^2/h. In addition, in the data set with rats (100 mg/kg transdermally), the “body temperature, t = 0 min” value is recorded as 37.24 ± 0.07; the “body temperature, t = 90 min” value stood at 36.82 ± 0.06; the “body temperature, t = 180 min” value came out at 36.70 ± 0.05; the “body temperature, t = 270 min” value is on record as 36.67 ± 0.08. In the data set with mice (setting [3]), the “% (rate of writhing inhibition)” value was 55% and the “No. of Writhing” value stood at 15.7. In data set [2], the “Peak plasma concentration of parent compound after prodrug compound” value amounted to 2000 mg/L and the “t, time to peak plasma level of parent compound after prodrug compound” value (from here on “t, time … after prodrug compound”) is on record as 50 min.

Turning to `Cc1c(Cl)cccc1Nc1ccccc1C(=O)O` [tolfenamic acid], the solubility in data set [1] was below 0.1 mg/mL.

Turning to `CCN(CC)CCOC(=O)c1ccccc1Nc1cccc(Cl)c1C` [diethylaminoethyl 2-[(3-chloro-2-methylphenyl)amino]benzoate], the solubility in data set [1] was above 400 mg/mL.

As for “8-chloro-(4-N,N-dimethylaminobutyryloxy-pyridine-2-ylamino-methylidene)-3-methyl-2,2-dioxo-2λ^6,7-dithia-3-azabicyclo[4,3,0]nona-8,10-dien-5-one.HCl”, in the data set on rats (25 mg/kg transdermally), the “body temperature, t = 0 min” value turned out to be 37.53 ± 0.05; the “body temperature, t = 90 min” value worked out at 36.57 ± 0.05; the “body temperature, t = 180 min” value is listed as 36.52 ± 0.07; the “body temperature, t = 270 min” value worked out at 36.51 ± 0.06. Besides, in the data set with mice (setting [4]), the “% (rate of writhing inhibition)” value is 50% and the “No. of Writhing” value was 17.5.

As for `CN(C)CCCC(=O)OC1=C(C(=O)Nc2ccccn2)N(C)S(=O)(=O)c2ccsc21.Cl` [4-N,N-dimethylaminobutyryloxy-2-methyl-N-2-pyridinyl-2H-thieno[2,3-e]-1,2-thiazine-3-carboxamide 1,1-dioxide.HCl], the “In vitro penetration rate (apparent flux), prodrug compounds” value with human skin tissue is 1800 μg/cm^2/h. For the same molecule, in the data set on rats (25 mg/kg transdermally), the “body temperature, t = 0 min” value turned out to be 37.54 ± 0.06; the “body temperature, t = 90 min” value is recorded as 36.61 ± 0.06; the “body temperature, t = 180 min” value is listed as 36.58 ± 0.08; the “body temperature, t = 270 min” value stood at 36.55 ± 0.05. Further, in the data set on mice (setting [4]), the “% (rate of writhing inhibition)” value worked out at 53% and the “No. of Writhing” value turned out to be 16.9. Besides, the “Peak plasma concentration of parent compound after prodrug compound” value in data set [2] came to 20 mg/L.

With `CC(=O)O.CCN(CC)CCOC(=O)CC(O)c1ccc(-c2ccc(Cl)cc2)o1` (stereo not drawn) [diethylaminoethyl 5-(4-chlorophenyl)-beta-hydroxy-2-furanpropionate.AcOH], the “In vitro penetration rate (apparent flux), prodrug compounds” value in the data set with human skin tissue was determined as 4100 μg/cm^2/h. Besides, in the data set with rats (100 mg/kg transdermally), the “body temperature, t = 0 min” value was 37.29 ± 0.07; the “body temperature, t = 90 min” value was found to be 36.82 ± 0.06; the “body temperature, t = 180 min” value is on record as 36.60 ± 0.05; the “body temperature, t = 270 min” value is 36.67 ± 0.08. For the same molecule, in the data set with mice (setting [3]), the “% (rate of writhing inhibition)” value was 55% and the “No. of Writhing” value is listed as 15.6. Further, in data set [2], the “Peak plasma concentration of parent compound after prodrug compound” value is 2000 mg/L and the “t, time … after prodrug compound” value was found to be 50 min.

Turning to `CC(=O)O.CCN(CC)CCOC(=O)C(C)c1ccc(CC2CCCC2=O)cc1` (stereo not drawn) [diethylaminoethyl 2-[4-(2-oxocyclopentyl-methyl)phenyl]propionate.AcOH], the “In vitro penetration rate (apparent flux), prodrug compounds” value in the data set on human skin tissue was determined as 3400 μg/cm^2/h. Also, in the data set with rats (100 mg/kg transdermally), the “body temperature, t = 0 min” value was 37.25 ± 0.06; the “body temperature, t = 90 min” value was determined as 36.71 ± 0.05; the “body temperature, t = 180 min” value came out at 36.65 ± 0.08; the “body temperature, t = 270 min” value stood at 36.64 ± 0.07. Besides, in the data set on mice (setting [3]), the “% (rate of writhing inhibition)” value was determined as 55% and the “No. of Writhing” value was determined as 15.7. Moreover, in data set [2], the “Peak plasma concentration of parent compound after prodrug compound” value came to 2000 mg/L and the “t, time … after prodrug compound” value was 50 min.

For `CC(=O)O.CN(C)CCNC(=O)Cc1ccccc1Nc1c(Cl)cccc1Cl` [N-dimethylaminoethyl 2[(2,6-dichlorophenyl)amino] benzene acetamide.AcOH], the Solubility in water in data set [1] came out at 450 mg/mL.

For `CC(=O)O.CCN(CC)CCOC(=O)C(C)c1ccc(N2CC=CC2)c(Cl)c1` (stereo not drawn) [diethylaminoethyl 3-chloro-4-(2,5-dihydro-1H-pyrrol-1-yl)-α-methyl benzeneacetate.AcOH], the “In vitro penetration rate (apparent flux), prodrug compounds” value with human skin tissue worked out at 3500 μg/cm^2/h. Moreover, in the data set on rats (100 mg/kg transdermally), the “body temperature, t = 0 min” value was found to be 37.27 ± 0.06; the “body temperature, t = 90 min” value was 36.68 ± 0.05; the “body temperature, t = 180 min” value is 36.62 ± 0.08; the “body temperature, t = 270 min” value is on record as 36.58 ± 0.07. Further, in the data set on mice (setting [3]), the “% (rate of writhing inhibition)” value amounted to 60% and the “No. of Writhing” value stood at 14.0. In addition, in data set [2], the “Peak plasma concentration of parent compound after prodrug compound” value is given as 2000 mg/L and the “t, time … after prodrug compound” value is on record as 50 min.

As to `CC(=O)O.CCN(CC)CCOC(=O)C1CCn2c(C(=O)c3ccccc3)ccc21` (stereo not drawn) [diethylaminoethyl 5-benzoyl-2,3-dihydro-1H-pyrrolizine-1-carboxylate.AcOH], the “In vitro penetration rate (apparent flux), prodrug compounds” value with human skin tissue stood at 3800 μg/cm^2/h. Moreover, in the data set with rats (100 mg/kg transdermally), the “body temperature, t = 0 min” value is recorded as 37.22 ± 0.06; the “body temperature, t = 90 min” value stood at 36.65 ± 0.06; the “body temperature, t = 180 min” value turned out to be 36.58 ± 0.08; the “body temperature, t = 270 min” value is 36.51 ± 0.07. Moreover, in the data set with mice (setting [3]), the “% (rate of writhing inhibition)” value is 54% and the “No. of Writhing” value was 16.1. Also, in data set [2], the “Peak plasma concentration of parent compound after prodrug compound” value is recorded as 2000 mg/L and the “t, time … after prodrug compound” value is recorded as 50 min.

In the case of `CC(=O)O.CCN(CC)CCOC(=O)CCC(=O)c1ccc(-c2ccccc2)cc1` [diethylaminoethyl 3-(4-biphenylylcarbonyl)propionate.AcOH], in the data set with human skin tissue, the “In vitro penetration rate (apparent flux), prodrug compounds” value was 3600 μg/cm^2/h. In addition, in the data set on rats (100 mg/kg transdermally), the “body temperature, t = 0 min” value is 37.23 ± 0.06; the “body temperature, t = 90 min” value is on record as 36.81 ± 0.05; the “body temperature, t = 180 min” value came to 36.65 ± 0.08; the “body temperature, t = 270 min” value is 36.61 ± 0.07. In addition, in the data set on mice (setting [3]), the “% (rate of writhing inhibition)” value worked out at 59% and the “No. of Writhing” value stood at 14.2. In data set [2], the “Peak plasma concentration of parent compound after prodrug compound” value came to 2000 mg/L and the “t, time … after prodrug compound” value worked out at 50 min.

Take `CC(=O)O.CCN(CC)CCOC(=O)C(C)c1ccc(C(=O)c2ccccc2)s1` (stereo not drawn) [diethylaminoethyl 5-benzoyl-α-methyl-2-thiopheneacetate.AcOH]: the “In vitro penetration rate (apparent flux), prodrug compounds” value in the data set with human skin tissue is on record as 4200 μg/cm^2/h. In addition, in the data set on rats (100 mg/kg transdermally), the “body temperature, t = 0 min” value is listed as 37.26 ± 0.06; the “body temperature, t = 90 min” value was 36.65 ± 0.06; the “body temperature, t = 180 min” value was 36.58 ± 0.08; the “body temperature, t = 270 min” value worked out at 36.36 ± 0.07. Besides, in the data set on mice (setting [3]), the “% (rate of writhing inhibition)” value turned out to be 62% and the “No. of Writhing” value worked out at 13.2. In data set [2], the “Peak plasma concentration of parent compound after prodrug compound” value came out at 2000 mg/L and the “t, time … after prodrug compound” value amounted to 50 min.

With `CN1C(C(=O)Nc2ccccn2)=C(O)c2sccc2S1(=O)=O` [Tenoxicam, tenoxicam, reference compound], in the data set on human skin tissue, the “In vitro penetration rate (apparent flux), parent compounds” value is reported as below 1 μg/cm^2/h. Further, in data set [2], the “t, time … after parent compound” value was in the range of 2 to 4 h and the “Peak plasma concentration after parent compound” value was 0.1 mg/L.

Take `CC(=O)O.CCN(CC)CCOC(=O)Cc1ccc(CC(C)C)cc1` [diethylaminoethyl p-isobutylphenylacetate.AcOH]: the “Solubility of HPP” value in data set [1] (medium not given) is above 250 mg/mL.

`CC(=O)O.CCN(CC)CCOC(=O)C(C)c1ccc(-c2ccccc2)c(F)c1` (stereo not drawn) [diethylaminoethyl 2-(2-fluoro-4-biphenylyl)propionate.AcOH]: the “In vitro penetration rate (apparent flux), prodrug compounds” value with human skin tissue worked out at 3500 μg/cm^2/h. Besides, in the data set on rats (100 mg/kg transdermally), the “body temperature, t = 0 min” value came to 37.29 ± 0.07; the “body temperature, t = 90 min” value is given as 36.82 ± 0.06; the “body temperature, t = 180 min” value was 36.70 ± 0.05; the “body temperature, t = 270 min” value was found to be 36.67 ± 0.08. Besides, in the data set with mice (setting [3]), the “% (rate of writhing inhibition)” value stood at 55% and the “No. of Writhing” value came out at 15.6. In data set [2], the “Peak plasma concentration of parent compound after prodrug compound” value is given as 2000 mg/L and the “t, time … after prodrug compound” value amounted to 50 min.
